In patent US11071731B2, “Allosteric modulators of the mu opioid receptor” (Chiromics, LLC, priority 2017, dated 2021):

What was measured:
mu opioid receptor (MOR) [1] = target: T1, mu opioid receptor (MOR) (Homo sapiens, UniProt P35372); test: PathHunter β-arrestin recruitment assay, PAM mode with EC20 endomorphin-1; type: cell-based
Method in brief: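 β-Arrestin recruitment to the receptor was tracked by chemiluminescent β-galactosidase activity from complementing fragments (ED on receptor, EA on β-arrestin). Per-compound outputs were EC50 and percent maximal response.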

mu opioid receptor (MOR) [2] = target: T1, mu opioid receptor (MOR); test: Hit Hunter cAMP signaling assay (adenylyl cyclase inhibition), PAM mode with EC20 endomorphin-1; type: cell-based
[3] = maximal response for β-arrestin recruitment
[4] = β-arrestin recruitment, read-out: β-arr. EC50
[5] = cAMP EC50, adenylyl cyclase inhibition
[6] = maximal response for adenylyl cyclase inhibition
[7] = adenylyl cyclase inhibition, read-out: cAMP EC50
[8] = β-arrestin recruitment, activity switching by MOR PAMs
[9] = β-arrestin recruitment, activity switching by MOR PAMs, read-out: β-arrestin EC50
[10] = adenylyl cyclase inhibition, activity switching by MOR PAMs
[11] = adenylyl cyclase inhibition, activity switching by MOR PAMs, read-out: cAMP EC50
[12] = maximal response, β-arrestin recruitment
[13] = maximal response, adenylyl cyclase inhibition

T1 sequence (P35372 whole entry, the tested form may be a part): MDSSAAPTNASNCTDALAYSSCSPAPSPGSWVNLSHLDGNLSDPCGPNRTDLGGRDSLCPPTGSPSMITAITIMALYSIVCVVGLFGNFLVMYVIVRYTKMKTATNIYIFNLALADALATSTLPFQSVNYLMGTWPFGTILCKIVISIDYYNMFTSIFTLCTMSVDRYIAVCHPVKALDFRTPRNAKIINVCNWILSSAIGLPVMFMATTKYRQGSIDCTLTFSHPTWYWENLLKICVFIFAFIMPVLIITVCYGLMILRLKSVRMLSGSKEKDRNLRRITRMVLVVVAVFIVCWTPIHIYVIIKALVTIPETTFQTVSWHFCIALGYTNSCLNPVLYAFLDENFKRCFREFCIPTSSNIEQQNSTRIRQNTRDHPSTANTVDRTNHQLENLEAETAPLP

| SMILES | β-arr Max. Resp. (mu opioid receptor (MOR) [1]; [3]) | EC50 (mu opioid receptor (MOR) [1]; [4]) [µM] | EC50 (mu opioid receptor (MOR) [2]; [5]) [µM] | cAMP Max. Resp. (mu opioid receptor (MOR) [2]; [6]) | EC50 (mu opioid receptor (MOR) [2]; [7]) [µM] | β-arrestin Max Response (mu opioid receptor (MOR) [1]; [8]) | EC50 (mu opioid receptor (MOR) [1]; [9]) [µM] | cAMP Max Resp. (mu opioid receptor (MOR) [2]; [10]) | EC50 (mu opioid receptor (MOR) [2]; [11]) [µM] | β-arr Max. Resp. (mu opioid receptor (MOR) [1]; [12]) | cAMP Max. Resp. (mu opioid receptor (MOR) [2]; [13]) |
| --- | --- | --- | --- | --- | --- | --- | --- | --- | --- | --- | --- |
| COc1cnc(Cl)nc1N1CCCCC1c1cccc(C(F)(F)F)c1 (stereo not shown) [compound 361] | D (D represents a maximal response of < 40%) | < 0.7 | < 0.7 | D (D represents a maximal response of < 40%) | – | – | – | – | – | – | – |
| O=S(=O)(Cc1ccc(Cl)cc1)N1CCCC(F)C1c1ccc(F)c(Br)c1 (stereo not shown) [Compound 33] | – | > 2.1 | – | – | > 2.1 | – | – | – | – | – | – |
| O=S(=O)(c1ccc(Cl)cc1)N1CCCCC1c1cncc(C(F)(F)F)c1 (racemic) [compound 83] | D (D represents a maximal response of < 40%) | > 2.1 | – | D (D represents a maximal response of < 40%) | > 2.1 | D (D represents a maximal response of < 40%) | > 2.1 | D (D represents a maximal response of < 40%) | > 2.1 | – | – |
| Fc1ccc(C2C(F)CCCN2c2nc(Cl)ncc2F)cc1Br (stereo not shown) [compound 214] | – | > 2.1 | – | – | 0.7 to 2.1 | – | – | – | – | – | – |
| COc1ccc(C2CCCCN2c2nc(Cl)ncc2F)cc1C(F)(F)F (stereo not shown) [compound 289] | F (F represents a maximal response of > 60%) | 0.7 to 2.1 | > 2.1 | D (D represents a maximal response of < 40%) | – | – | – | – | – | – | – |
| COc1ncccc1C1CCCCN1c1nc(Cl)ncc1F (stereo not shown) [compound 380] | D (D represents a maximal response of < 40%) | < 0.7 | < 0.7 | D (D represents a maximal response of < 40%) | – | – | – | – | – | – | – |
| Fc1cnc(Cl)nc1N1CCCCC1c1ccccn1 (stereo not shown) [compound 329] | D (D represents a maximal response of < 40%) | < 0.7 | < 0.7 | D (D represents a maximal response of < 40%) | – | – | – | – | – | – | – |
| COC(=O)c1ccc(N2CCCCC2c2cccc(C(F)(F)F)n2)cc1 (stereo not shown) [compound 478] | – | > 2.1 | > 2.1 | – | – | – | – | – | – | F (F represents a maximal response of > 60%) | D (D represents a maximal response of < 40%) |
| Fc1cc(Cl)cc(CN2CCCCC2c2ccc(F)c(Cl)c2)c1 (stereo not shown) [compound 155] | F (F represents a maximal response of > 60%) | 0.7 to 2.1 | 0.7 to 2.1 | D (D represents a maximal response of < 40%) | – | – | – | – | – | – | – |
| Cc1ncc(F)c(N2CCCCC2c2cccc(F)n2)n1 (stereo not shown) [compound 270] | D (D represents a maximal response of < 40%) | > 2.1 | > 2.1 | D (D represents a maximal response of < 40%) | – | – | – | – | – | – | – |
| Fc1ccc(C2CC(F)(F)CCN2c2nc(Cl)ncc2F)cc1Br (stereo not shown) [compound 246] | F (F represents a maximal response of > 60%) | 0.7 to 2.1 | 0.7 to 2.1 | D (D represents a maximal response of < 40%) | – | – | – | – | – | – | – |
| Fc1cnc(Cl)nc1N1CCCCC1c1cc(C(F)(F)F)c2[nH]cnc2c1 (stereo not shown) [compound 417] | D (D represents a maximal response of < 40%) | < 0.7 | < 0.7 | D (D represents a maximal response of < 40%) | – | – | – | – | – | – | – |
| Fc1ccc(Cl)nc1N1CCCCC1c1cccc(C(F)(F)F)c1 (stereo not shown) [compound 263] | F (F represents a maximal response of > 60%) | 0.7 to 2.1 | 0.7 to 2.1 | D (D represents a maximal response of < 40%) | – | – | – | – | – | – | – |
| Fc1ccc(Cl)cc1C1CCCCN1c1nc(Cl)ncc1F (stereo not shown) [compound 400] | D (D represents a maximal response of < 40%) | < 0.7 | < 0.7 | D (D represents a maximal response of < 40%) | – | – | – | – | – | – | – |
| Cc1ncc(F)c(N2CCCCC2c2cccc(C(F)(F)F)c2)n1 (stereo not shown) [compound 269] | F (F represents a maximal response of > 60%) | > 2.1 | > 2.1 | D (D represents a maximal response of < 40%) | – | – | – | – | – | – | – |
| Fc1ccc(C2CCCCN2Cc2cc(Cl)ccc2Cl)cc1Cl (stereo not shown) [compound 158] | F (F represents a maximal response of > 60%) | 0.7 to 2.1 | < 0.7 | D (D represents a maximal response of < 40%) | – | – | – | – | – | – | – |
| Fc1cc(C2COCCN2Cc2cc(Cl)ccc2F)cc(C(F)(F)F)c1 (racemic) [Compound 195] | F (F represents a maximal response of > 60%) | 0.7 to 2.1 | – | D (D represents a maximal response of < 40%) | > 2.1 | – | – | – | – | – | – |
| COc1ccc(C2CCCCN2S(=O)(=O)c2cccnc2Cl)cc1Br (stereo not shown) [compound 17] | D (D represents a maximal response of < 40%) | > 2.1 | > 2.1 | D (D represents a maximal response of < 40%) | – | – | – | – | – | – | – |

| SMILES | β-arr Max. Resp. (mu opioid receptor (MOR) [1]; [3]) | EC50 (mu opioid receptor (MOR) [1]; [4]) [µM] | EC50 (mu opioid receptor (MOR) [2]; [5]) [µM] | cAMP Max. Resp. (mu opioid receptor (MOR) [2]; [6]) | EC50 (mu opioid receptor (MOR) [2]; [7]) [µM] | β-arrestin Max Response (mu opioid receptor (MOR) [1]; [8]) | EC50 (mu opioid receptor (MOR) [1]; [9]) [µM] | cAMP Max Resp. (mu opioid receptor (MOR) [2]; [10]) | EC50 (mu opioid receptor (MOR) [2]; [11]) [µM] | β-arr Max. Resp. (mu opioid receptor (MOR) [1]; [12]) | cAMP Max. Resp. (mu opioid receptor (MOR) [2]; [13]) |
| --- | --- | --- | --- | --- | --- | --- | --- | --- | --- | --- | --- |
| Fc1cnc(Cl)cc1N1CCCCC1c1cccc(C(F)(F)F)c1 (stereo not shown) [compound 261] | F (F represents a maximal response of > 60%) | 0.7 to 2.1 | > 2.1 | D (D represents a maximal response of < 40%) | – | – | – | – | – | – | – |
| Fc1cnc(Cl)nc1N1CCCCC1c1ccnc2ccccc12 (stereo not shown) [compound 283] | D (D represents a maximal response of < 40%) | > 2.1 | > 2.1 | F (F represents a maximal response of > 60%) | – | – | – | – | – | – | – |
| Fc1cnc(Cl)nc1N1CCCCC1c1cccc(Cl)c1F (stereo not shown) [compound 369] | D (D represents a maximal response of < 40%) | < 0.7 | < 0.7 | D (D represents a maximal response of < 40%) | – | – | – | – | – | – | – |
| COc1ccc(C2C3CCC(C3)N2c2nc(Cl)ncc2F)cc1Br (stereo not shown) [compound 138] | D (D represents a maximal response of < 40%) | > 2.1 | > 2.1 | D (D represents a maximal response of < 40%) | – | – | – | – | – | – | – |
| COc1ccc(C2CCCCN2c2nc(Cl)ncc2F)cc1Br (stereo not shown) [compound 132] | F (F represents a maximal response of > 60%) | > 2.1 | 0.7 to 2.1 | D (D represents a maximal response of < 40%) | – | – | – | – | – | – | – |
| O=C1CCN(c2nc(Cl)ncc2F)C(c2ccc(F)c(Br)c2)C1 (stereo not shown) [compound 240] | D (D represents a maximal response of < 40%) | > 2.1 | > 2.1 | E (E represents a maximal response of 40-60%) | – | – | – | – | – | – | – |
| Fc1cnc(Cl)nc1N1CCOCC1c1cccc(C(F)(F)F)c1 (racemic) [Compound 188] | F (F represents a maximal response of > 60%) | > 2.1 | – | E (E represents a maximal response of 40-60%) | 0.7 to 2.1 | – | – | – | – | – | – |
| O=S(=O)(c1ccc(Cl)cc1)N1CCCCC1c1cc(F)cc(C(F)(F)F)c1 (racemic) [compound 50] | F (F represents a maximal response of > 60%) | > 2.1 | – | D (D represents a maximal response of < 40%) | 0.7 to 2.1 | – | – | – | – | – | – |
| Fc1ccc(C2CCCCN2c2ccc(C(F)(F)F)cc2)cc1Cl (stereo not shown) [compound 453] | – | > 2.1 | > 2.1 | – | – | – | – | – | – | D (D represents a maximal response of < 40%) | D (D represents a maximal response of < 40%) |
| COc1ccc(C2COCCN2S(=O)(=O)c2ccc(Cl)cc2)cc1Br (racemic) [Compound 222] | F (F represents a maximal response of > 60%) | > 2.1 | – | D (D represents a maximal response of < 40%) | 0.7 to 2.1 | – | – | – | – | – | – |
| FC(F)(F)c1cccc(C2CCCCN2Cc2ccnc(Cl)c2)n1 (stereo not shown) [compound 166] | F (F represents a maximal response of > 60%) | > 2.1 | > 2.1 | E (E represents a maximal response of 40-60%) | – | – | – | – | – | – | – |
| O=S(=O)(c1ccc(Cl)cc1)N1CCCCC1c1cncc(C(F)(F)F)n1 (stereo not shown) [compound 63] | F (F represents a maximal response of > 60%) | > 2.1 | – | E (E represents a maximal response of 40-60%) | > 2.1 | F (F represents a maximal response of >60%) | > 2.1 | E (E represents a maximal response of 40-60%) | > 2.1 | – | – |
| C#Cc1cccc(N2CCCCC2c2cccc(C(F)(F)F)n2)c1 (stereo not shown) [compound 451] | – | > 2.1 | > 2.1 | – | – | – | – | – | – | F (F represents a maximal response of > 60%) | D (D represents a maximal response of < 40%) |
| O=S(=O)(c1ccc(Cl)cc1)N1CCCCC1c1ccc(F)c(F)c1 (racemic) [compound 75] | F (F represents a maximal response of > 60%) | 0.7 to 2.1 | – | E (E represents a maximal response of 40-60%) | < 0.7 | – | – | – | – | – | – |
| O=S(=O)(c1ccc(Cl)cc1F)N1CCCCC1c1cccc(C(F)(F)F)c1 (stereo not shown) [Compound 25] | F (F represents a maximal response of > 60%) | > 2.1 | – | D (D represents a maximal response of < 40%) | > 2.1 | – | – | – | – | – | – |
| Fc1cnc(Cl)nc1N1CCCCC1c1cccc(C(F)F)c1 (stereo not shown) [compound 298] | F (F represents a maximal response of > 60%) | > 2.1 | < 0.7 | F (F represents a maximal response of > 60%) | – | – | – | – | – | – | – |
| Fc1cnc(Cl)nc1N1CCCCC1c1ccn2nncc2c1 (stereo not shown) [compound 374] | D (D represents a maximal response of < 40%) | < 0.7 | < 0.7 | D (D represents a maximal response of < 40%) | – | – | – | – | – | – | – |
| N#Cc1cc(C2CCCCN2S(=O)(=O)c2ccc(Cl)cc2)ccc1F (racemic) [compound 58] | F (F represents a maximal response of > 60%) | > 2.1 | – | D (D represents a maximal response of < 40%) | > 2.1 | – | – | – | – | – | – |
